US20080051429A1, “USE OF 4-AMINO-PIPERIDINES FOR TREATING SLEEP DISORDERS” (priority 2006, published 2008)

Assays:
healthy volunteers [1] = experiment: Polysomnography (PSG) sleep study, double-blind, placebo-controlled; assay type: in vivo, human
Experimental: A double-blind, placebo-controlled study involving 45 healthy volunteers ranging in age from 40 to 64 was conducted. […] All subjects underwent a two-night screening and baseline PSG evaluation. Additional PSG measurements were performed on the evening of study days 1 and 13. The subjects also completed a Continuous Performance Test (CPT) to assess the potential impact on daytime functioning. […] Of the 45 subjects, 20 of them also underwent a positron emission tomography (PET) study to measure 5-HT2A brain receptor occupancy.
During an assessment period, participants stayed overnight in the clinic for […] from Day −1 to Day 2 and one night from Day 13 to Day 14. Participants underwent a one-night PSG evaluation on the evening of Day 1, following the first dose of treatment and a final one-night PSG evaluation on the evening of Day 13. Between Day 3 and Day 12, participants were at home.
Polysomnographic recordings were performed from 23:00 to 07:00 on the following day.
The drug was dispensed as a solution (in vials) per os (p.o.), in a double-blind fashion as determined by the randomization schedule. The content of the vials was completely consumed followed by the consumption of one vial of water.
Data Analysis: A multivariate analyses of variance (MANOVA) with 5 clusters of sleep parameters as dependent variables (sleep continuity architecture and profile parameters for the visual analysis, and NREM and REM parameters for the spectral power analysis as shown in Table 1) was conducted initially. Change from baseline to the last day of drug administration was assessed by an analysis of covariance with repeated measures (ANCOVA®), with the baseline variables as covariates, to detect group differences (drug at each dose versus placebo) in the PSG sleep findings. For each ANCOVA, two main effects (Treatment, 4 levels, and Study Day, 2 levels) and their interaction were analyzed. Drug to placebo contrasts were calculated as a whole (Day 1 and Day 13 combined) as well as separately for each Study Day. Change from baseline to the last day of drug administration, by group, on the results of the CPT was also analyzed. Additional pharmacodynamic analysis, including the electrographic results obtained on Study Day 1, was performed. SAS® Version 8.2 was used for non-pharmacokinetic parameters and WinNonLin V4.0 was used to compute all pharmacokinetic parameters.

healthy volunteers [2] = experiment: Clinical safety evaluation; assay type: in vivo, human
Experimental: Safety: 3-positional vital signs, ECGs, body temperature, and respiratory rates as well as blood chemistries, hematology, and urinalysis served as safety measures. Safety measures were assessed at screening, baseline (Day −1), Day 1, Day 2, Day 13, and Day 14. Any observed or reported adverse events were recorded. Blood samples were taken on Day −1 (baseline) and on Day 14 (steady state). Two weeks after the termination of treatment administration (Day 28), an end-of-study visit was conducted, and included a clinical safety evaluation.

CC(C)COc1ccc(CNC(=O)N(Cc2ccc(F)cc2)C2CCN(C)CC2)cc1 [N-(1-methylpiperidin-4-yl)-N-(4-fluorophenylmethyl)-N′-(4-(2-methylpropyloxy)phenylmethyl)carbamide]
Change in Slow Wave Sleep From Baseline (healthy volunteers [1]; 1 mg, Day 1): 6.4 min
Change in Slow Wave Sleep From Baseline, Percentage (healthy volunteers [1]; 1 mg, Day 1): 10%
Duration (min) of wake after sleep onset (healthy volunteers [1]; 1 mg, Day 1): 47.67 min
Number of awakenings after sleep onset (healthy volunteers [1]; 1 mg, Day 1): 20.22
SWS duration (healthy volunteers [1]; 1 mg, Day 1): 69.78 min
Change in Slow Wave Sleep From Baseline (healthy volunteers [1]; 1 mg, Day 13): 5.4 min
Change in Slow Wave Sleep From Baseline, Percentage (healthy volunteers [1]; 1 mg, Day 13): 9%
Duration (min) of wake after sleep onset (healthy volunteers [1]; 1 mg, Day 13): 40.06 min
Number of awakenings after sleep onset (healthy volunteers [1]; 1 mg, Day 13): 20.78
SWS duration (healthy volunteers [1]; 1 mg, Day 13): 68.78 min
NREM sleep % (healthy volunteers [1]; 2.5 mg, C): ↑ (↑, <.05)
NREM sleep duration (healthy volunteers [1]; 2.5 mg, C): ↑ (↑, <.05)
SWS 2nd third (healthy volunteers [1]; 2.5 mg, C): ↑↑ (↑↑, <.01)
SWS % (healthy volunteers [1]; 2.5 mg, C): ↑↑ (↑↑, <.01)
Stage 3% (healthy volunteers [1]; 2.5 mg, C): ↑ (↑, <.05)
Stage 3 duration (healthy volunteers [1]; 2.5 mg, C): ↑ (↑, <.05)
Stage 4% (healthy volunteers [1]; 2.5 mg, C): ↑ (↑, <.05)
Stage 4 duration (healthy volunteers [1]; 2.5 mg, C): ↑ (↑, <.05)
SWS 2nd third (healthy volunteers [1]; 2.5 mg, D1): ↑ (↑, <.05)
SWS % (healthy volunteers [1]; 2.5 mg, D1): ↑ (↑, <.05)
Stage 3% (healthy volunteers [1]; 2.5 mg, D1): ↑ (↑, <.05)
Stage 3 duration (healthy volunteers [1]; 2.5 mg, D1): ↑ (↑, <.05)
NREM sleep % (healthy volunteers [1]; 2.5 mg, D13): ↑↑ (↑↑, <.01)
NREM sleep duration (healthy volunteers [1]; 2.5 mg, D13): ↑ (↑, <.05)
Change in Slow Wave Sleep From Baseline (healthy volunteers [1]; 2.5 mg, Day 1): 21.8 min
Change in Slow Wave Sleep From Baseline, Percentage (healthy volunteers [1]; 2.5 mg, Day 1): 40%
Duration (min) of wake after sleep onset (healthy volunteers [1]; 2.5 mg, Day 1): 51.00 min
Number of awakenings after sleep onset (healthy volunteers [1]; 2.5 mg, Day 1): 21.44
SWS duration (healthy volunteers [1]; 2.5 mg, Day 1): 75.83 min
Change in Slow Wave Sleep From Baseline (healthy volunteers [1]; 2.5 mg, Day 13): 19.6 min
Change in Slow Wave Sleep From Baseline, Percentage (healthy volunteers [1]; 2.5 mg, Day 13): 36%
Duration (min) of wake after sleep onset (healthy volunteers [1]; 2.5 mg, Day 13): 30.44 min
Number of awakenings after sleep onset (healthy volunteers [1]; 2.5 mg, Day 13): 19.78
SWS duration (healthy volunteers [1]; 2.5 mg, Day 13): 73.61 min
SWS 1st third (healthy volunteers [1]; 5 mg, C): ↑↑ (↑↑, <.01)
SWS 2nd third (healthy volunteers [1]; 5 mg, C): ↑↑ (↑↑, <.01)
SWS % (healthy volunteers [1]; 5 mg, C): ↑↑ (↑↑, <.01)
Stage 1% (healthy volunteers [1]; 5 mg, C): ↓ (↓, <.05)
Stage 2% (healthy volunteers [1]; 5 mg, C): ↓ (↓, <.05)
Stage 3% (healthy volunteers [1]; 5 mg, C): ↑ (↑, <.05)
Stage 3 duration (healthy volunteers [1]; 5 mg, C): ↑ (↑, <.05)
Stage 4% (healthy volunteers [1]; 5 mg, C): ↑↑ (↑↑, <.01)
Stage 4 duration (healthy volunteers [1]; 5 mg, C): ↑↑ (↑↑, <.01)
SWS 1st third (healthy volunteers [1]; 5 mg, D1): ↑↑ (↑↑, <.01)
SWS % (healthy volunteers [1]; 5 mg, D1): ↑↑ (↑↑, <.01)
Stage 1% (healthy volunteers [1]; 5 mg, D1): ↓ (↓, <.05)
Stage 2% (healthy volunteers [1]; 5 mg, D1): ↓ (↓, <.05)
Stage 3% (healthy volunteers [1]; 5 mg, D1): ↑ (↑, <.05)
Stage 3 duration (healthy volunteers [1]; 5 mg, D1): ↑ (↑, <.05)
Stage 4% (healthy volunteers [1]; 5 mg, D1): ↑↑ (↑↑, <.01)
Stage 4 duration (healthy volunteers [1]; 5 mg, D1): ↑↑ (↑↑, <.01)
SWS 1st third (healthy volunteers [1]; 5 mg, D13): ↑ (↑, <.05)
SWS 2nd third (healthy volunteers [1]; 5 mg, D13): ↑ (↑, <.05)
SWS % (healthy volunteers [1]; 5 mg, D13): ↑↑ (↑↑, <.01)
Stage 4% (healthy volunteers [1]; 5 mg, D13): ↑↑ (↑↑, <.01)
Stage 4 duration (healthy volunteers [1]; 5 mg, D13): ↑↑ (↑↑, <.01)
Change in Slow Wave Sleep From Baseline (healthy volunteers [1]; 5 mg, Day 1): 37.3 min
Change in Slow Wave Sleep From Baseline, Percentage (healthy volunteers [1]; 5 mg, Day 1): 65%
Duration (min) of wake after sleep onset (healthy volunteers [1]; 5 mg, Day 1): 64.56 min
Number of awakenings after sleep onset (healthy volunteers [1]; 5 mg, Day 1): 20.67
SWS duration (healthy volunteers [1]; 5 mg, Day 1): 94.89 min
Change in Slow Wave Sleep From Baseline (healthy volunteers [1]; 5 mg, Day 13): 41.9 min
Change in Slow Wave Sleep From Baseline, Percentage (healthy volunteers [1]; 5 mg, Day 13): 73%
Duration (min) of wake after sleep onset (healthy volunteers [1]; 5 mg, Day 13): 43.89 min
Number of awakenings after sleep onset (healthy volunteers [1]; 5 mg, Day 13): 21.78
SWS duration (healthy volunteers [1]; 5 mg, Day 13): 99.56 min
duration and proportion of wake after sleep onset (healthy volunteers [1]; 20 mg): decreased
NREM sleep % (healthy volunteers [1]; 20 mg, C): ↑↑ (↑↑, <.01)
NREM sleep duration (healthy volunteers [1]; 20 mg, C): ↑ (↑, <.05)
SWS 1st third (healthy volunteers [1]; 20 mg, C): ↑↑ (↑↑, <.01)
SWS 2nd third (healthy volunteers [1]; 20 mg, C): ↑↑ (↑↑, <.01)
SWS % (healthy volunteers [1]; 20 mg, C): ↑↑ (↑↑, <.01)
Stage 2 duration (healthy volunteers [1]; 20 mg, C): ↓ (↓, <.05)
Stage 3% (healthy volunteers [1]; 20 mg, C): ↑ (↑, <.05)
Stage 3 duration (healthy volunteers [1]; 20 mg, C): ↑ (↑, <.05)
Stage 4% (healthy volunteers [1]; 20 mg, C): ↑↑ (↑↑, <.01)
Stage 4 duration (healthy volunteers [1]; 20 mg, C): ↑↑ (↑↑, <.01)
SWS 2nd third (healthy volunteers [1]; 20 mg, D1): ↑↑ (↑↑, <.01)
SWS % (healthy volunteers [1]; 20 mg, D1): ↑↑ (↑↑, <.01)
Stage 2 duration (healthy volunteers [1]; 20 mg, D1): ↓ (↓, <.05)
Stage 4% (healthy volunteers [1]; 20 mg, D1): ↑↑ (↑↑, <.01)
Stage 4 duration (healthy volunteers [1]; 20 mg, D1): ↑↑ (↑↑, <.01)
NREM sleep % (healthy volunteers [1]; 20 mg, D13): ↑↑ (↑↑, <.01)
SWS 2nd third (healthy volunteers [1]; 20 mg, D13): ↑↑ (↑↑, <.01)
SWS % (healthy volunteers [1]; 20 mg, D13): ↑↑ (↑↑, <.01)
Stage 4% (healthy volunteers [1]; 20 mg, D13): ↑↑ (↑↑, <.01)
Stage 4 duration (healthy volunteers [1]; 20 mg, D13): ↑↑ (↑↑, <.01)
Change in Slow Wave Sleep From Baseline (healthy volunteers [1]; 20 mg, Day 1): 46.0 min
Change in Slow Wave Sleep From Baseline, Percentage (healthy volunteers [1]; 20 mg, Day 1): 55%
Duration (min) of wake after sleep onset (healthy volunteers [1]; 20 mg, Day 1): 33.44 min
Number of awakenings after sleep onset (healthy volunteers [1]; 20 mg, Day 1): 20.89
SWS duration (healthy volunteers [1]; 20 mg, Day 1): 129.94 min
Change in Slow Wave Sleep From Baseline (healthy volunteers [1]; 20 mg, Day 13): 39.0 min
Change in Slow Wave Sleep From Baseline, Percentage (healthy volunteers [1]; 20 mg, Day 13): 46%
Duration (min) of wake after sleep onset (healthy volunteers [1]; 20 mg, Day 13): 29.89 min
Number of awakenings after sleep onset (healthy volunteers [1]; 20 mg, Day 13): 18.89
SWS duration (healthy volunteers [1]; 20 mg, Day 13): 122.94 min
REM sleep duration, proportion of REM sleep, REM sleep latency, REM activity or REM density (healthy volunteers [1]; in words): no effect
latency to sleep onset (healthy volunteers [1]; in words): did not alter
number of awakenings after sleep onset, drug to placebo contrasts (healthy volunteers [1]; the 4 doses, most significant in 2.5 mg and 5 mg groups): significantly decreased
safety and tolerability (healthy volunteers [2]; 1 to 20 mg once daily, 14 days): safe and well tolerated
serious adverse events (healthy volunteers [2]; 1 to 20 mg once daily, 14 days): no serious adverse events
nature of adverse events (healthy volunteers [2]; comparable across placebo and treated groups): mild to moderate
